Test results from patent US20240182945A1, “PRODUCTS FOR REGULATION OF EUKARYOTIC AND MICROBIAL CELLS GROWTH” (priority 2021, published 2024).

Experiments:
[1] = system: MIX—PP +BM (P. aeruginosa with microbial modulators); assay: Growth of mix PP + MM (original sputum) on antibiotic-supplemented Columbia agar; type: cell-based; settings: Bacterial set #2; Cefepime (16 μg/mL); Columbia agar with erythrocytes 5%, 24 h at 37 C
[2] = system: bacteria of sputum from patients with lung diseases; assay: Standard antibiotic susceptibility study using the microbroth dilution method (Algorithm #3); type: cell-based; also: key: '+'—presence of bacterial growth, antibiotic ineffective; '−'—absence of bacterial growth, antibiotic effective
Text: Algorithm #3—Standard antibiotic susceptibility study using the microbroth dilution method.

[3] = system: S.aureus (PP) and MM in sputum from children with pneumonia; assay: Degree of eradication of PP and MM on Columbia agar with antibiotic at concentrations achievable at the site of infection; type: cell-based; set-up: key to Degree of primary pathogen eradication, evaluation of ABEPP: % of primary pathogen (PP) eliminated
Protocol: We next tried to select antibiotics based on building a probability model. Antibiotic efficacy was evaluated based on a novel parameters: • ABEPPMM100—antibiotic concentration that is required for the elimination of 100% “complex” PP+MM. • ABEPPMM99—antibiotic concentration that is required for the elimination of 99% “complex” PP+MM.
ABEPPMM90—antibiotic concentration that is required for the elimination of 90% “complex” PP+MM.
ABEPPMM50—antibiotic concentration that is required for the elimination of 50% “complex” PP+MM.
ABEPP100—antibiotic concentration that affecting on “complex” PP+MM is required for the elimination of 100% PP.
ABEPP99—antibiotic concentration that affecting on “complex” PP+MM is required for the elimination of 99% PP.
ABEPP90—antibiotic concentration that affecting on “complex” PP+MM is required for the elimination of 90% PP.
ABEPP50—antibiotic concentration that affecting on “complex” PP+MM is required for the elimination of 50% PP.
We used sputum from children with pneumonia, with S.aureus as confirmed PP. Patient 1—child • Patient 2—child • Patient 3—child

B. pumilus = assay: Growth of microbial modulator alone on antibiotic-supplemented Columbia agar; type: cell-based; settings: Bacterial set #2; Cefepime (16 μg/mL); Columbia agar with erythrocytes 5%, 24 h at 37 C
[4] = system: bacteria of the biosample (persisters); assay: Neutropenic mice instilled with biosample and treated with antibiotic for 72 h, microbial growth in organs and blood; type: in vivo; settings: neutropenic C57BL/6 mice treated for 72 h, agar with 100 ug/mL of the antibiotic
Protocol: Next, we confirmed that antibiotics selected with proposed algorithm are effective. Adult C57BL/6 mice were rendered neutropenic by injecting cyclophosphamide subcutaneously 4 days before infection (150 mg/kg of body weight), 1 day before infection (100 mg/kg), and 1 day after infection (100 mg/kg). Mice were anesthetized with 2% isoflurane and orally instilled with biosample (stored at +4 C). Briefly, nares were blocked, and mice aspirated 50 μL of the biosample into the lungs while being held vertically for 60 s.

P. aeruginosa = assay: Growth of primary pathogen alone on antibiotic-supplemented Columbia agar; type: cell-based; settings: Bacterial set #2; Cefepime (16 μg/mL); Columbia agar with erythrocytes 5%, 24 h at 37 C
Protocol: Four sputum samples from patients with lung infections were used. Pure bacterial culture of each microorganisms was obtained by routine microbiological methods.
In this case this antibiotic at MIC of 16 ug/mL was used in the following studies. PP alone, or Microbial Modulators (MM) alone or the original sputum were plated on the wells of 24 well plate filled with nutrient Columbia agar supplemented with erythrocytes 5% and supplemented with antibiotics taken as MIC determined against PP, but not more than 16 μg/mL and incubated 24 h at 37 C.

R. dentocariosa = assay: Growth of microbial modulator alone on antibiotic-supplemented Columbia agar; type: cell-based; settings: Bacterial set #2; Cefepime (16 μg/mL); Columbia agar with erythrocytes 5%, 24 h at 37 C
[5] = cited from earlier work
A. ursingii = assay: Growth of microbial modulator alone on antibiotic-supplemented Columbia agar; type: cell-based; settings: Bacterial set #2; Cefepime (16 μg/mL); Columbia agar with erythrocytes 5%, 24 h at 37 C
[6] = Patient 1, C0-1 h, 24 h of growth
[7] = Patient 1, C0-2 h, 24 h of growth
[8] = Patient 1, C0-3 h, 24 h of growth
[9] = Patient 1, C0-4 h, 24 h of growth
[10] = Patient 1, C0-6 h, 24 h of growth
[11] = Patient 1, C0-8 h, 24 h of growth
[12] = Patient 1, C0-12 h, 24 h of growth
[13] = Patient 1, C0-24 h, 24 h of growth
[14] = Patient 1, C2-3 h, 24 h of growth
[15] = Patient 1, C3-4 h, 24 h of growth
[16] = Patient 1, C4-6 h, 24 h of growth
[17] = Patient 1, C6-8 h, 24 h of growth
[18] = Patient 1, C8-12 h, 24 h of growth
[19] = Patient 1, C12-24 h, 24 h of growth
[20] = Patient 1, Cmax × 2, 24 h of growth
[21] = Patient 2, C0-3 h, 24 h of growth
[22] = Patient 2, C0-4 h, 24 h of growth
[23] = Patient 2, C0-6 h, 24 h of growth
[24] = Patient 2, C0-8 h, 24 h of growth
[25] = Patient 2, C0-12 h, 24 h of growth
[26] = Patient 2, C0-24 h, 24 h of growth
[27] = Patient 2, C3-4 h, 24 h of growth
[28] = Patient 2, C4-6 h, 24 h of growth
[29] = Patient 2, C6-8 h, 24 h of growth
[30] = Patient 2, C8-12 h, 24 h of growth
[31] = Patient 2, C12-24 h, 24 h of growth
[32] = Patient 3, C0-3 h, 24 h of growth
[33] = Patient 3, C0-4 h, 24 h of growth
[34] = Patient 3, C0-6 h, 24 h of growth
[35] = Patient 3, C0-8 h, 24 h of growth
[36] = Patient 3, C0-12 h, 24 h of growth
[37] = Patient 3, C0-24 h, 24 h of growth
[38] = Patient 3, C3-4 h, 24 h of growth
[39] = Patient 3, C4-6 h, 24 h of growth
[40] = Patient 3, C6-8 h, 24 h of growth
[41] = Patient 3, C8-12 h, 24 h of growth
[42] = Patient 3, C12-24 h, 24 h of growth

For `CO/N=C(\C(=O)N[C@@H]1C(=O)N2C(C(=O)[O-])=C(C[N+]3(C)CCCC3)CS[C@H]12)c1csc(N)n1` [Cefepime], the “microbial growth, MIX (PP + MM)” value [1] was “−”, the ATB efficacy [2] was “+” and the “Degree of primary pathogen eradication, evaluation of ABEPP” value [3, 6] was 100. For the same molecule, the “Degree of primary pathogen eradication, evaluation of ABEPPMM” value (“Degree … of ABEPPMM” for short) [3, 6] was 100, the “Degree of primary pathogen eradication, evaluation of ABEPP” value [3, 7] was 100 and the “Degree … of ABEPPMM” value [3, 7] was 100. For the same molecule, the “Degree of primary pathogen eradication, evaluation of ABEPP” value [3, 8] was 100, the “Degree … of ABEPPMM” value [3, 8] was 100 and the “Degree of primary pathogen eradication, evaluation of ABEPP” value [3, 9] was 100. The “Degree … of ABEPPMM” value [3, 9] was 100, the “Degree of primary pathogen eradication, evaluation of ABEPP” value [3, 10] was 100 and the “Degree … of ABEPPMM” value [3, 10] was 100. For the same molecule, the “Degree of primary pathogen eradication, evaluation of ABEPP” value [3, 11] was 50, the “Degree … of ABEPPMM” value [3, 11] was 50 and the “Degree of primary pathogen eradication, evaluation of ABEPP” value [3, 12] was 00. The “Degree … of ABEPPMM” value [3, 12] was 00, the “Degree of primary pathogen eradication, evaluation of ABEPP” value [3, 13] was 0 and the “Degree … of ABEPPMM” value [3, 13] was 0. For the same molecule, the “Degree of primary pathogen eradication, evaluation of ABEPP” value [3, 14] was 100, the “Degree … of ABEPPMM” value [3, 14] was 100 and the “Degree of primary pathogen eradication, evaluation of ABEPP” value [3, 15] was 100. The “Degree … of ABEPPMM” value [3, 15] was 100, the “Degree of primary pathogen eradication, evaluation of ABEPP” value [3, 16] was 100 and the “Degree … of ABEPPMM” value [3, 16] was 100. The “Degree of primary pathogen eradication, evaluation of ABEPP” value [3, 17] was 100, the “Degree … of ABEPPMM” value [3, 17] was 100 and the “Degree of primary pathogen eradication, evaluation of ABEPP” value [3, 18] was 50. For the same molecule, the “Degree … of ABEPPMM” value [3, 18] was 00, the “Degree of primary pathogen eradication, evaluation of ABEPP” value [3, 19] was 00 and the “Degree … of ABEPPMM” value [3, 19] was 00. For the same molecule, the “Degree of primary pathogen eradication, evaluation of ABEPP” value [3, 20] was 100, the “Degree … of ABEPPMM” value [3, 20] was 100 and the “Degree of primary pathogen eradication, evaluation of ABEPP” value [3, 21] was 90. The “Degree … of ABEPPMM” value [3, 21] was 90, the “Degree of primary pathogen eradication, evaluation of ABEPP” value [3, 22] was 50 and the “Degree … of ABEPPMM” value [3, 22] was 50. The “Degree of primary pathogen eradication, evaluation of ABEPP” value [3, 23] was 50, the “Degree … of ABEPPMM” value [3, 23] was 50 and the “Degree of primary pathogen eradication, evaluation of ABEPP” value [3, 24] was 50. The “Degree … of ABEPPMM” value [3, 24] was 50, the “Degree of primary pathogen eradication, evaluation of ABEPP” value [3, 25] was 50 and the “Degree … of ABEPPMM” value [3, 25] was 50. For the same molecule, the “Degree of primary pathogen eradication, evaluation of ABEPP” value [3, 26] was 0, the “Degree … of ABEPPMM” value [3, 26] was 0 and the “Degree of primary pathogen eradication, evaluation of ABEPP” value [3, 27] was 50. The “Degree … of ABEPPMM” value [3, 27] was 50, the “Degree of primary pathogen eradication, evaluation of ABEPP” value [3, 28] was 50 and the “Degree … of ABEPPMM” value [3, 28] was 50. The “Degree of primary pathogen eradication, evaluation of ABEPP” value [3, 29] was 50, the “Degree … of ABEPPMM” value [3, 29] was 50 and the “Degree of primary pathogen eradication, evaluation of ABEPP” value [3, 30] was 50. The “Degree … of ABEPPMM” value [3, 30] was 50, the “Degree of primary pathogen eradication, evaluation of ABEPP” value [3, 31] was 0 and the “Degree … of ABEPPMM” value [3, 31] was 0. For the same molecule, the “Degree of primary pathogen eradication, evaluation of ABEPP” value [3, 32] was 90, the “Degree … of ABEPPMM” value [3, 32] was 90 and the “Degree of primary pathogen eradication, evaluation of ABEPP” value [3, 33] was 90. For the same molecule, the “Degree … of ABEPPMM” value [3, 33] was 90, the “Degree of primary pathogen eradication, evaluation of ABEPP” value [3, 34] was 90 and the “Degree … of ABEPPMM” value [3, 34] was 90. The “Degree of primary pathogen eradication, evaluation of ABEPP” value [3, 35] was 0, the “Degree … of ABEPPMM” value [3, 35] was 0 and the “Degree of primary pathogen eradication, evaluation of ABEPP” value [3, 36] was 0. For the same molecule, the “Degree … of ABEPPMM” value [3, 36] was 0, the “Degree of primary pathogen eradication, evaluation of ABEPP” value [3, 37] was 0 and the “Degree … of ABEPPMM” value [3, 37] was 0. For the same molecule, the “Degree of primary pathogen eradication, evaluation of ABEPP” value [3, 38] was 90, the “Degree … of ABEPPMM” value [3, 38] was 90 and the “Degree of primary pathogen eradication, evaluation of ABEPP” value [3, 39] was 90. The “Degree … of ABEPPMM” value [3, 39] was 90, the “Degree of primary pathogen eradication, evaluation of ABEPP” value [3, 40] was 0 and the “Degree … of ABEPPMM” value [3, 40] was 0. For the same molecule, the “Degree of primary pathogen eradication, evaluation of ABEPP” value [3, 41] was 0, the “Degree … of ABEPPMM” value [3, 41] was 0 and the “Degree of primary pathogen eradication, evaluation of ABEPP” value [3, 42] was 0. The “Degree … of ABEPPMM” value [3, 42] was 0, the “microbial growth, BP (BM alone)” value (B. pumilus) was “+” and the “Number of animals with positive microbial growth on the agar with antibiotics/total number of animals per group” value ([4]; Blood) was 4/8. The “Number of animals with positive microbial growth on the agar with antibiotics/total number of animals per group” value ([4]; Liver) was 2/8, the “Number of animals with positive microbial growth on the agar with antibiotics/total number of animals per group” value ([4]; Lungs) was 3/8 and the “microbial growth, PA (PP alone)” value (P. aeruginosa) was “+”. The “microbial growth, RD (BM alone)” value (R. dentocariosa) was “−”, the “lung concentration after 8 h of administration” value ([5]; 8 h) was 23 µg/mL and the “lung concentration after 12 h of administration” value ([5]; 12 h) was 8 µg/mL. The “microbial growth, AU (BM alone)” value (A. ursingii) was “+”.
